From US20220135564A1, “DEUTERATED MITRAGYNINE ANALOGS AS SAFER OPIOID MODULATORS IN THE MITRAGYNINE CLASS” (The Trustees of Columbia University in the City of New York, priority 2019, published 2022)
Structures can show the parent of a compound that is named as a salt.

Experiments:
[1] = Metabolic profiling of DHM in mouse liver S9 fraction (MS9); type: in vitro ADME; conditions: DHM 10 μM, MS9, 60-min incubation, positive ion mode
Procedure: Analytical System. The metabolic profiling of DHM in mouse liver S9 fraction was performed using high performance liquid chromatography-tandem mass spectrometry (HPLC-MS/MS). A Shimadzu HPLC system comprising 2 isocratic pumps (LC-10ADvp), an autosampler (SIL-30ACMP), a system controller (CBM-20A), a high-pressure switching valve (FCV-20AH6), and a degasser (DGU-14A) was used for separations. Mass spectrometric analyses were performed using an API 4000 QTRAP mass spectrometer from Applied Biosystems/MDS Sciex (AB Sciex) with Turbo V ion source and TurboIonspray interface. Data acquisition and system control was performed using Analyst 1.6.3 software from AB Sciex.
Liver S9 Incubations. Liver S9 fraction pooled from male CD-1 mice was used. Incubations were carried out in 1.1 mL microtubes (in 96-well format plate) in aliquots of 40 μL each (2 for each time point; 0, 6, 16, 30, and 60 min). […] Control incubations were performed replacing the cofactor system with phosphate buffer. Test compound DHM (10 μM, final solvent concentration 1.6%) was incubated with S9 at 37° C., shaking at 100 rpm. Incubations were performed in duplicate. Five time points over 60 minutes (0, 6, 16, 30, and 60 min) were analyzed. […] Supernatants (two time points, 0 and 60 min) were analyzed for remaining parent compound and putative metabolites by HPLC-MS/MS.
General Strategy for Identification of Metabolites. […]

mice = test: Analgesic activity of DHM in mice; type: in vivo, mouse
[2] = test system: mice (129Sv6 or CD-1 strain); test: Lethality assay in mice; type: in vivo, mouse; conditions: s.c., lethality 24 h after administration
Procedure: Lethality Assay. Groups of mice (n=6 per dose, 129Sv6 or CD-1 strain) were treated subcutaneously (s.c.) with different doses of DHM and tested for lethality 24 h after drug administration.

male mice (C57BL/6J) = test: Rotarod test in mice (motor coordination); type: in vivo, mouse; conditions: male C57BL/6J mice, s.c., cumulative 3, 10, 30 mg/kg, compared to vehicle
Procedure: The rotarod test is useful for measuring the motor coordination of rodents and therefore, for identifying test drugs that induce ataxic effects. 3-Dehydromitragynine (DHM) reduces the performance of mice in this test in a dose-dependent manner; indicating an impairment of motor coordination by this compound (FIG. 1).
Animals. This study was conducted using male C57BL/6J mice, 7 weeks of age (n=10/treatment), purchased from The Jackson Laboratory (Bar Harbor, Me.). Animals were housed in groups of five and allowed to acclimate for 1 week prior to testing. Mice had ad libitum access to food and water and were maintained on a 12-hour light/dark cycle. All testing was done in the light cycle.
Drug. DHM hydrochloride was dissolved in double-distilled H2O containing 10% N-methyl-2-pyrrolidone (NMP). Drug or vehicle was administered subcutaneously 15 minutes prior to the start of behavioral testing at a volume of 10 mL/kg body weight. Dosing was performed cumulatively at 3, 10, and 30 mg/kg, with 1 hour between injections.
Rotarod Testing. On the test day, animals were acclimated to the testing room for 1 hour. An accelerating rotarod (Model 7650, UGO Basile, Comeria, VA, Italy) was used to measure the motor coordination of the animals. Time on the rotarod was measured by stopwatch, starting when animals were placed on the rod and ending at the time the animal fell off the apparatus. […]

CC[C@@H]1C[N+]2=C(C[C@@H]1/C(=C\OC)C(=O)OC)c1[nH]c3cccc(OC)c3c1CC2 [DHM, 3-Dehydromitragynine hydrochloride]
% Area [1]: 20%
analgesic activity on its own (mice): does not exhibit analgesic activity
LD50 (95% confidence interval) ([2]; 129Sv6 mice): 48.4 (71.27-342.3) mg/kg
LD50 (95% confidence interval) ([2]; CD-1 mice): 74 (48.08-120.5) mg/kg
motor coordination, latency to fall in the rotarod test (male mice (C57BL/6J)): dramatically impairs motor coordination
